ChEMBL document CHEMBL6083193, “Advancing drug discovery: Thiadiazole derivatives as multifaceted agents in medicinal chemistry and pharmacology” (Bioorg Med Chem, 2024)

Key:
A549 [1] = assay: Cytotoxicity against human A549 cells assessed as reduction in cell viability incubated for 24 hrs by MTT assay; assay type: functional, cell-based; conditions: A549, 24 h
MCF7 [2] = assay: Cytotoxicity against human MCF7 cells assessed as reduction in cell viability incubated for 24 hrs by MTT assay; assay type: functional, cell-based; conditions: MCF7, 24 h
A549 [3] = assay: Cytotoxicity against human A549 cells by MTT assay; assay type: functional, cell-based
[4] = molecular target: Epidermal growth factor receptor (Homo sapiens, UniProt P00533); assay: Inhibition of EGFR (unknown origin)
A549 [5] = assay: Cytotoxicity against human A549 cells assessed as reduction in cell growth; assay type: functional, cell-based
Trypanosoma brucei = assay: Antiparasitic activity against blood stream form Trypanosoma brucei assessed as parasitic growth inhibition at 10 uM by resazurin dye based fluorescence analysis relative to control; assay type: functional; parameters: scale not given: the % may be the effect or the level left
A2780 [6] = assay: Cytotoxicity against human A2780 cells assessed as reduction in cell viability incubated for 72 hrs by CCK-8 assay; assay type: functional, cell-based; conditions: A2780, 72 h
A2780 [7] = assay: Cytotoxicity against human A2780 cells assessed as increase in LDH activity; assay type: functional, cell-based
A2780 [8] = assay: Induction of apoptosis in human A2780 cells assessed as caspase3/7 activation; assay type: functional, cell-based
MCF7 [9] = assay: Anticancer activity against human MCF7 cells by MTT assay; assay type: functional, cell-based

Sequence of Epidermal growth factor receptor (P00533 whole entry): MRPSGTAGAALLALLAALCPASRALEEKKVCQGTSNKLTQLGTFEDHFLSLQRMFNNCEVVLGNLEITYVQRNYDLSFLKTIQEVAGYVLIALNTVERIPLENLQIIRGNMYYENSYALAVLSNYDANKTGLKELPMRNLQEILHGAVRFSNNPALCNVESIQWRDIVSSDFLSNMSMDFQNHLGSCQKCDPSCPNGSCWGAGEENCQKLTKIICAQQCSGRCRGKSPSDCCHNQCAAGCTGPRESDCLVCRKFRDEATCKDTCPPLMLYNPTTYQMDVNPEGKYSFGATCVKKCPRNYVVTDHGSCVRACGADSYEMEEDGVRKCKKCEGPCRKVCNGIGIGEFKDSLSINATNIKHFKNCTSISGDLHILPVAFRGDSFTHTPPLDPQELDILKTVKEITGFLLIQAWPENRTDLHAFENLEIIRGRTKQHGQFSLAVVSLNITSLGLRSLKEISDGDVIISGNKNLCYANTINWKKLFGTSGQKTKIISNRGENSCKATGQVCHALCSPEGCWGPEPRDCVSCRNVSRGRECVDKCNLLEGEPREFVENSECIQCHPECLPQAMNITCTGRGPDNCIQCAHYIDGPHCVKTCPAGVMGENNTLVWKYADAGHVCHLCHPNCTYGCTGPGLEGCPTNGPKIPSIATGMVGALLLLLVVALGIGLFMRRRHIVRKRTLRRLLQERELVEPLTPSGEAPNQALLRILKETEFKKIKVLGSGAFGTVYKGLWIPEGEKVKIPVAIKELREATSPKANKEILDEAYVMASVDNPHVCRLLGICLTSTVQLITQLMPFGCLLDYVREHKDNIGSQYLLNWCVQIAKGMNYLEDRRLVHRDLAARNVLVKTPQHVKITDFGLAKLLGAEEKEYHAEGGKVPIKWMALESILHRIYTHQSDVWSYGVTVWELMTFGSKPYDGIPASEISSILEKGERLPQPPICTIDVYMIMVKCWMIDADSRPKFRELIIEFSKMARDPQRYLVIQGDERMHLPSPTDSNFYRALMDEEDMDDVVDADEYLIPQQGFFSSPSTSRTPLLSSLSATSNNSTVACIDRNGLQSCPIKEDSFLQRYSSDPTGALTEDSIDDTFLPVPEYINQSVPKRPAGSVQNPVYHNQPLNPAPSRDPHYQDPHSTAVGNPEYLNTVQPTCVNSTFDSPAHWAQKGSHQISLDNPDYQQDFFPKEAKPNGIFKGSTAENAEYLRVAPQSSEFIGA

SMILES: O=C(CSc1nnc(Nc2ccccc2)s1)N1N=C(c2ccccc2)CC1c1ccc([N+](=O)[O-])cc1 (configuration not stated)
- IC50 (A549 [1]): 1.54 µM
- IC50 (MCF7 [2]): 15.9 µM
- IC50 (A549 [3]): 48.3 µM
- IC50 [4]: 2 nM
- IC50 (A549 [5]): 10 µM

SMILES: Cc1nc[nH]c1-c1nnc(Nc2ccccc2F)s1
- Activity (Trypanosoma brucei): 64.81%

SMILES: O=C1C[C@H](n2ccsc2=S)[C@H]2CO[C@@H]1O2
- IC50 (A2780 [6]): 47.8 µM
- IC50 (A2780 [7]): 62 µM
- IC50 (A2780 [8]): 1 µM
- IC50 (MCF7 [9]): 110 nM

SMILES: Nc1nsc(=S)n1[C@H]1CC(=O)[C@@H]2OC[C@H]1O2
- IC50 (A2780 [6]): 50.2 µM
- IC50 (A2780 [7]): 23.8 µM
- IC50 (A2780 [8]): 15 µM

SMILES: O=C(CSc1nnc(Nc2ccc(Cl)cc2)s1)N1N=C(c2ccccc2)CC1c1ccc([N+](=O)[O-])cc1 (configuration not stated)
- IC50 (A549 [1]): 8.49 µM
- IC50 (MCF7 [2]): 67.2 µM
- IC50 (A549 [3]): 11.9 µM
- IC50 (A549 [5]): 10 µM

SMILES: CNc1nnc(CCCSc2nnc(SCCCc3nnc(NC)s3)s2)s1
- Activity (Trypanosoma brucei): 65.3%

SMILES: C=CCNc1nnc(SCC(=O)N2N=C(c3ccccc3)CC2c2ccc([N+](=O)[O-])cc2)s1 (configuration not stated)
- IC50 (A549 [1]): 5.18 µM
- IC50 (MCF7 [2]): 35.7 µM
- IC50 (A549 [5]): 10 µM

SMILES: c1ccc(Nc2nnc(CCCSc3nnc(CCCSc4nnc(Nc5ccccc5)s4)s3)s2)cc1
- Activity (Trypanosoma brucei): 82.6%
